From patent US20240228501A1, “IMIDAZOLE-CONTAINING CONDENSED RING DERIVATIVE, PREPARATION METHOD THEREFOR, AND APPLICATION THEREOF IN MEDICINE” (CHANGCHUN GENESCIENCE PHARMACEUTICAL CO., LTD., priority 2021, published 2024)

Target: T1, human NK-3 receptor (Homo sapiens, UniProt P29371)
T1 construct: expressed in transfected cells; host or cells: HEK293
T1 sequence (P29371 1-465): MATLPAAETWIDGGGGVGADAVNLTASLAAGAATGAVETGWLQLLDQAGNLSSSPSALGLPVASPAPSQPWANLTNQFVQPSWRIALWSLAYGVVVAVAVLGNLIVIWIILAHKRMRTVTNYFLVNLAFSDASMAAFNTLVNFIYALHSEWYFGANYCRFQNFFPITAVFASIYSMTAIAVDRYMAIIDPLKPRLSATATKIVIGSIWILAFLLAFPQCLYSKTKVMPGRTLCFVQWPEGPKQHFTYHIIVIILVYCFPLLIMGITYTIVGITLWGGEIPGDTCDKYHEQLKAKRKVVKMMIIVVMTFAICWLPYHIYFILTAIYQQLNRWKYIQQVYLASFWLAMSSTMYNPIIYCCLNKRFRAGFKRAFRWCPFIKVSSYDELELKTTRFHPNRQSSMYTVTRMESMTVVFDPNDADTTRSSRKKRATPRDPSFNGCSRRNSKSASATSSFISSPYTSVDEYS
Test: Antagonistic activity on human NK-3 receptor in human NK-3R/HEK293 stably transfected cells (Fluo-4, FLIPR, Neurokinin B as agonist)
Assay type: cell-based
Settings: human NK-3R/HEK293 cells
Method: Test Example 1: Determination of Activity of Compounds of the Present Invention on Human NK-3 Receptor
This method is used to determine antagonistic effects of the compounds of the present invention on the activity of human NK-3 receptor proteins expressed in cell lines stably transfected with human NK-3R/HEK293.
2.1 The cell lines stably transfected with human NK-3R/HEK293 were inoculated in a 384-well cell culture plate at a inoculation density of 12,000 cells/well/25 μL, and cultured at 37° C. and 5% CO2 overnight;
2.2 20× Component A was frozen and thawed to room temperature, diluted 2× with Assay Buffer to working concentration, and kept at room temperature for later use;
2.3 The cell culture plate was equilibrated at room temperature for 10 min, the culture medium was removed, and 20 μL of Assay Buffer and 20 μL of 2× Component A […] were added, followed by centrifugation at 200 g at room temperature for 3-5 sec, and incubation at 37° C. for 2 h;
2.4 The compound was diluted 3 times with DMSO in 384 PP_DMSO plate, and then 240 nl/well of the compound was transferred into a working plate with Echo 550, centrifugated at 200 g at room temperature for 1 min; 40 μl of Assay Buffer was added into the working plate, centrifugated at 200 g at room temperature for 1 min, and then fully mixed in an oscillator at 2500 rpm for 20 min, and then centrifugated at 200 g at room temperature for 1 min for later use;
2.5 2.5 nM Neurokinin B TFA (6×) was prepared from Assay Buffer, 50 uL of which was transferred onto 3657 plate for later use;
2.6 The cell culture plate was taken out and left to stand at room temperature for 10 min, then […] the compound diluted in step 2.4 was added into corresponding wells, and the cell culture plate was left to stand at 25° C. for 30 min; and
2.7 10 μL of the compound diluted in step 2.5 was added into the corresponding experimental wells with FLIPR Tetra, and data was collected.
The antagonistic activity of the compounds of the present invention on the human NK-3 receptor was determined through the above experiments, to obtain inhibition curves of the compounds of the present invention and determine concentrations (IC50) of the corresponding compounds that inhibit 50% of the reference agonist.

Structure (SMILES)	IC50
Cc1nsc(-c2nc(N3CCC(O)CC3=O)c3n2CCN(C(=O)c2ccc(F)cc2)[C@@H]3C)n1 (stereo partly drawn) [Compound 116, 1-[(R)-7-(4-fluorobenzoyl)-8-methyl-3-(3-methyl-1,2,4-thiadiazol-5-yl)-5,6,7,8-tetrahydroimidazo[1,5-a]pyrazin-1-yl]-4-hydroxypiperidin-2-one]	0.0119 µM
Cc1nsc(-c2nc(N3COCC3=O)c3n2CCN(C(=O)c2ccc(F)cc2)C3C)n1 (stereo not drawn) [Compound 169, 3-(7-(4-fluorobenzoyl)-8-methyl-3-(3-methyl-1,2,4-thiadiazol-5-yl)-5,6,7,8-tetrahydroimidazo[1,5-a]pyrazin-1-yl)oxazolidin-4-one]	0.0657 µM
Cc1nsc(-c2nc(N3C[C@H](O)CC3=O)c3n2CCN(C(=O)c2ccc(F)cc2)[C@@H]3C)n1 [Compound 103, (R)-1-((R)-7-(4-fluorobenzoyl)-8-methyl-3-(3-methyl-1,2,4-thiadiazol-5-yl)-5,6,7,8-tetrahydroimidazo[1,5-a]pyrazin-1-yl)-4-hydroxypyrrolidin-2-one]	0.0057 µM
Cc1nsc(-c2nc(-c3cc(F)nc(F)c3)c3n2CCN(C(=O)c2ccc(F)cc2)[C@@H]3C)n1 [Compound 053, (R)-(1-(2,6-difluoropyridin-4-yl)-8-methyl-3-(3-methyl-1,2,4-thiadiazol-5-yl)-5,6-dihydroimidazo[1,5-a]pyrazin-7 (8H)-yl)(4-fluorophenyl)methanone]	0.0202 µM
CC(=O)Cc1nc(-c2nc(C)ns2)n2c1[C@@H](C)N(C(=O)c1ccc(F)cc1)CC2 [Compound 214, (R)-1-(7-(4-fluorobenzoyl)-8-methyl-3-(3-methyl-1,2,4-thiadiazol-5-yl)-5,6,7,8-tetrahydroimidazo[1,5-a]pyrazin-1-yl)propan-2-one]	0.246 µM
CC(=O)O[C@@H]1CC(=O)N(c2nc(-c3nc(C)ns3)n3c2[C@@H](C)N(C(=O)c2ccc(F)cc2)CC3)C1 [Compound 133, (R)-1-[(R)-7-(4-fluorobenzoyl)-8-methyl-3-(3-methyl-1,2,4-thiadiazol-5-yl)-5,6,7,8-tetrahydroimidazo[1,5-a]pyrazin-1-yl]-5-oxopyrrolidin-3-ylacetate]	0.0186 µM
Cc1nsc(-c2nc(-c3ccncc3F)c3n2CCN(C(=O)c2ccc(F)cc2)[C@@H]3C)n1 [Compound 046, (R)-(4-fluorophenyl)(1-(3-fluoropyridin-4-yl)-8-methyl-3-(3-methyl-1,2,4-thiadiazol-5-yl)-5,6-dihydroimidazo[1,5-a]pyrazin-7 (8H)-yl)methanone]	0.00702 µM
Cc1nsc(-c2nc(N3CCCCCC3=O)c3n2CCN(C(=O)c2ccc(F)cc2)[C@@H]3C)n1 [Compound 117]	0.0725 µM
CO[C@@H]1CC(=O)N(c2nc(-c3nc(C)ns3)n3c2[C@@H](C)N(C(=O)c2ccc(F)cc2)CC3)C1 [Compound 115, (R)-1-[(R)-7-(4-fluorobenzoyl)-8-methyl-3-(3-methyl-1,2,4-thiadiazol-5-yl)-5,6,7,8-tetrahydroimidazo[1,5-a]pyrazin-1-yl]-4-methoxypyrrolidin-2-one]	0.0227 µM
COCCc1nc(-c2nc(C)ns2)n2c1C(C)N(C(=O)c1ccc(F)cc1)CC2 (racemic) [Compound 204, rac-(R)-(4-fluorophenyl)(1-(2-methoxyethyl)-8-methyl-3-(3-methyl-1,2,4-thiadiazol-5-yl)-5,6-dihydroimidazo[1,5-a]pyrazin-7 (8H)-yl)methanone]	0.109 µM
Cc1nsc(-c2nc(NS(C)(=O)=O)c3n2CCN(C(=O)c2ccc(F)cc2)[C@@H]3C)n1 [Compound 040, (R)—N-(7-(4-fluorobenzoyl)-8-methyl-3-(3-methyl-1,2,4-thiadiazol-5-yl)-5,6,7,8-tetrahydroimidazo[1,5-a]pyrazin-1-yl)methanesulfonamide]	0.0517 µM
Cc1nsc(-c2nc(N3CCOCCC3=O)c3n2CCN(C(=O)c2ccc(F)cc2)[C@@H]3C)n1 [Compound 114, (R)-1-[7-(4-fluorobenzoyl)-8-methyl-3-(3-methyl-1,2,4-thiadiazol-5-yl)-5,6,7,8-tetrahydroimidazo[1,5-a]pyrazin-1-yl]-1,4-azepan-5-one]	0.0287 µM
C[C@@H]1c2c(N3CCCC3=O)nc(-c3nc([C@@H](C)F)ns3)n2CCN1C(=O)c1ccc(F)cc1 [Compound 186, 1-((R)-7-(4-fluorobenzoyl)-3-(3-((R)-1-fluoroethyl)-1,2,4-thiadiazol-5-yl)-8-methyl-5,6,7,8-tetrahydroimidazo[1,5-a]pyrazin-1-yl)pyrrolidin-2-one]	0.0881 µM
CC(=O)N(C)c1nc(-c2nc(C)ns2)n2c1C(C)N(C(=O)c1ccc(F)cc1)CC2 (stereo not drawn) [Compound 010, N-(7-(4-fluorobenzoyl)-8-methyl-3-(3-methyl-1,2,4-thiadiazol-5-yl)-5,6,7,8-tetrahydroimidazo[1,5-a]pyrazin-1-yl)-N-methylacetamide]	0.0334 µM

The next lines start with the values.

IC50	Structure (SMILES)
0.0425 µM	Cc1nsc(-c2nc(N3C[C@H](N)CC3=O)c3n2CCN(C(=O)c2ccc(F)cc2)[C@@H]3C)n1 [Compound 129]
0.284 µM	Cc1nsc(-c2nc([C@H]3CCCC3=O)c3n2CCN(C(=O)c2ccc(F)cc2)[C@@H]3C)n1 [Compound 211, (R)-2-((R)-7-(4-fluorobenzoyl)-8-methyl-3-(3-methyl-1,2,4-thiadiazol-5-yl)-5,6,7,8-tetrahydroimidazo[1,5-a]pyrazin-1-yl)cyclopentan-1-one]
0.0517 µM	C[C@@H]1c2c(N3CCCC3=O)nc(-c3nc(C(F)(F)F)cs3)n2CCN1C(=O)c1ccc(F)cc1 [Compound 118, (R)-1-(7-(4-fluorobenzoyl)-8-methyl-3-(4-(trifluoromethyl)thiazol-2-yl)-5,6,7,8-tetrahydroimidazo[1,5-a]pyrazin-1-yl)pyrrolidin-2-one]
0.0476 µM	Cc1nsc(-c2nc(-c3c(F)cccc3F)c3n2CCN(C(=O)c2ccc(F)cc2)[C@@H]3C)n1 [Compound 063, (R)-(1-(2,6-difluorophenyl)-8-methyl-3-(3-methyl-1,2,4-thiadiazol-5-yl)-5,6-dihydroimidazo[1,5-a]pyrazin-7 (8H)-yl)(4-fluorophenyl)methanone]
0.0297 µM	Cc1nsc(-c2nc(-c3ccncn3)c3n2CCN(C(=O)c2ccc(F)cc2)[C@@H]3C)n1 [Compound 027, (R)-(4-fluorophenyl)(8-methyl-3-(3-methyl-1,2,4-thiadiazol-5-yl)-1-(pyrimidin-4-yl)-5,6-dihydroimidazo[1,5-a]pyrazin-7 (8H)-yl)methanone]
0.0168 µM	Cc1nsc(-c2nc(N3CCOCC3=O)c3n2CCN(C(=O)c2ccc(F)cc2)[C@@H]3C)n1 [Compound 072, (R)-4-(7-(4-fluorobenzoyl)-8-methyl-3-(3-methyl-1,2,4-thiadiazol-5-yl)-5,6,7,8-tetrahydroimidazo[1,5-a]pyrazin-1-yl)morpholin-3-one]
0.0269 µM	CC(=O)N(C)c1nc(-c2nc(C)ns2)n2c1[C@@H](C)N(C(=O)c1ccc(F)cc1)CC2 [Compound 060, (R)—N-(7-(4-fluorobenzoyl)-8-methyl-3-(3-methyl-1,2,4-thiadiazol-5-yl)-5,6,7,8-tetrahydroimidazo[1,5-a]pyrazin-1-yl)-N-methylacetamide]
0.023 µM	Cc1nsc(-c2nc(N3CCNCC3=O)c3n2CCN(C(=O)c2ccc(F)cc2)[C@@H]3C)n1 [Compound 123, (R)-1-(7-(4-fluorobenzoyl)-8-methyl-3-(3-methyl-1,2,4-thiadiazol-5-yl)-5,6,7,8-tetrahydroimidazo[1,5-a]pyrazin-1-yl)piperazin-2-one]
0.0586 µM	COCC(=O)Nc1nc(-c2nc(C)ns2)n2c1[C@@H](C)N(C(=O)c1ccc(F)cc1)CC2 [Compound 089, (R)—N-(7-(4-fluorobenzoyl)-8-methyl-3-(3-methyl-1,2,4-thiadiazol-5-yl)-5,6,7,8-tetrahydroimidazo[1,5-a]pyrazin-1-yl)-2-methoxyacetamide]
0.0679 µM	Cc1nsc(-c2nc(N3CC=CC3=O)c3n2CCN(C(=O)c2ccc(F)cc2)[C@@H]3C)n1 [Compound 096, (R)-1-(7-(4-fluorobenzoyl)-8-methyl-3-(3-methyl-1,2,4-thiadiazol-5-yl)-5,6,7,8-tetrahydroimidazo[1,5-a]pyrazin-1-yl)-1,5-dihydro-2H-pyrrol-2-one]
